Results as given in US20120184556A1, “SUBSTITUTED ENZOIMIDAZOLESULFONAMIDES AND SUBSTITUTED INDOLESULFONAMIDES AS MGLUR4 POTENTIATORS” (priority 2009, published 2012).
pEC50: −log10 of the molar value.

Biological target: T1, human mGluR4 (Homo sapiens, UniProt Q14833)
T1 construct: expressed in transfected cells; host or cells: Chinese Hamster Ovary (CHO) cells
Assay: human mGluR4 potentiation assay, CHO cells, Fluo-4 calcium fluorescence, agonist EC20
Assay type: cell-based
Settings: for Emax: CHO, maximum extent of potentiation, human mGluR4, read-out: GluMax; for pEC50: potentiation of human mGluR4 response to EC20 agonist, read-out: hEC50
Method: The disclosed compounds and compositions can be evaluated for their ability to act as a potentiator of metabotropic glutamate receptor activity, in particular mGluR4 activity, by any suitable known methodology known in the art. For example, Chinese Hamster Ovary (CHO) cells transfected with human mGluR4 or HEK cells co-transfected with rat mGluR4 and the G-protein regulated Inwardly Rectifying Potassium channel (GIRK) were plated in clear bottom assay plates for assay in a Hamamatsu FDSS Fluorometric Plate Reader. The cells were loaded with either the Ca2+-sensitive fluorescent dye Fluo-4 or the thallium responsive dye BTC, AM and the plates were washed and placed into a suitable kinetic plate reader. For human mGluR4 assays, a fluorescence baseline was established for 3-5 seconds, the disclosed compounds were then added to the cells, and the response in cells was measured. Approximately two and a half minutes later, a concentration of mGluR4 agonist (e.g. glutamate or L-AP4) eliciting approximately 20% (EC20) of the maximal agonist response was added to the cells, and the response was measured. Two minutes later, a concentration of mGluR4 agonist (e.g. glutamate or L-AP4) eliciting 80% (EC80) of the maximal agonist response was added to the cells, and the response was measured. For rat mGluR4/GIRK experiments, a baseline was established for approximately five seconds, disclosed compounds were added, and either an EC20 or EC80 concentration of agonist was added approximately two and one half minutes later. Potentiation of the agonist response of mGluR4 by the disclosed compounds was observed as an increase in response to the EC20 concentration of agonist in the presence of compound compared to the response to agonist in the absence of compound. Similarly, antagonism of the agonist response of mGluR4 by the disclosed compounds was observed as a decrease in response to the EC80 concentration of agonist in the presence of compound compared to the response to agonist in the absence of compound.
The above described assay operated in two modes. In the first mode, a range of concentrations of the disclosed compounds are added to cells, followed by a single fixed concentration of agonist. If the compound acts as a potentiatior, an EC50 value for potentiation and a maximum extent of potentiation by the compound at this concentration of agonist is determined by non-linear curve fitting. If the compound acts as a noncompetitive antagonist, an IC50 value is determined by non-linear curve fitting. In the second mode, several fixed concentrations of the disclosed compounds are added to various wells on a plate, followed by a range in concentrations of agonist for each concentration of disclosed compound. The EC50 values for the agonist at each concentration of compound are determined by non-linear curve fitting. A decrease in the EC50 value of the agonist with increasing concentrations of the sample compound (a leftward shift of the agonist concentration-response curve) is an indication of the degree of mGluR4 potentiation at a given concentration of the sample compound. A decrease in the maximal response of the agonist with increasing concentrations of the sample compounds, with or without a rightward shift in agonist potency, is an indication of the degree of noncompetitive antagonism at mGluR4. The second mode also indicates whether the sample compounds also affect the maximum response to mGluR4 to agonists.

T1 sequence (Q14833 33-912): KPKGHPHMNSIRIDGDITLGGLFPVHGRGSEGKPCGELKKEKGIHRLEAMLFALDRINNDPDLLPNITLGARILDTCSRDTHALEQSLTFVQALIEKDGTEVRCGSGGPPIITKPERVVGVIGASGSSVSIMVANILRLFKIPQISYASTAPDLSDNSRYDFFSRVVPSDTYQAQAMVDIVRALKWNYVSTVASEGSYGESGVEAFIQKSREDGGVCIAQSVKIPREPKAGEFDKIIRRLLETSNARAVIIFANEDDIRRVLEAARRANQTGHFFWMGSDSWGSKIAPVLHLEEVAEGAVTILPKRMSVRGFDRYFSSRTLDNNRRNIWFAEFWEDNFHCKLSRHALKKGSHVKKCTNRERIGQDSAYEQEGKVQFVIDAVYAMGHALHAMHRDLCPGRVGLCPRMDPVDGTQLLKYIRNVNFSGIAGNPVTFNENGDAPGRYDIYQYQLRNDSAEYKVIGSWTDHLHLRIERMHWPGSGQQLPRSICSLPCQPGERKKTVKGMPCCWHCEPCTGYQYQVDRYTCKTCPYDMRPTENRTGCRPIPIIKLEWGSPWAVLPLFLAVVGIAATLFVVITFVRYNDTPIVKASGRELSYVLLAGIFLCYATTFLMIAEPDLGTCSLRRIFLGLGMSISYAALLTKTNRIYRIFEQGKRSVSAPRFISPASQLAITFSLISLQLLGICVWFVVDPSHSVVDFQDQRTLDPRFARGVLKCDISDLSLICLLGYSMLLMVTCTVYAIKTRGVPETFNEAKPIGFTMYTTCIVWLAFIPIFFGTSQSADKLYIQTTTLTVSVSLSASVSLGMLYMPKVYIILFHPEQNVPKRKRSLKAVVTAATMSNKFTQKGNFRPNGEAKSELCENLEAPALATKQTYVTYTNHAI

Emax [%]	pEC50	Structure (SMILES)
246	6.73	O=S(=O)(Nc1ccccc1F)c1ccc2[nH]c(-c3ccccn3)nc2c1 [Example 33, N-(2-fluorophenyl)-2-(pyridin-2-yl)-1H-benzo[d]imidazole-5-sulfonamide]
149	5.96	O=S(=O)(Nc1ccccc1Cl)c1ccc2[nH]c(-c3cc(Br)no3)nc2c1 [Example 34, 2-(3-bromoisoxazol-5-yl)-N-(2-chlorophenyl)-1H-benzo[d]imidazole-5-sulfonamide]
87	5.70	Cc1cc(-c2nc3cc(S(=O)(=O)Nc4ccccc4Cl)ccc3[nH]2)on1 [Example 35, N-(2-chlorophenyl)-2-(3-methylisoxazol-5-yl)-1H-benzo[d]imidazole-5-sulfonamide]
73	6.53	O=S(=O)(Nc1ccc(F)cc1F)c1ccc2[nH]c(-c3ccccc3)nc2c1 [Example 36, N-(2,4-difluorophenyl)-2-phenyl-1H-benzo[d]imidazole-5-sulfonamide]
118	5.26	O=S(=O)(Nc1ccccc1F)c1ccc2[nH]c(-c3cnccn3)nc2c1 [Example 37, N-(2-fluorophenyl)-2-(pyrazin-2-yl)-1H-benzo[d]imidazole-5-sulfonamide]
42	6.43	O=S(=O)(Nc1ccccc1F)c1ccc2[nH]c(-c3ccsc3)nc2c1 [Example 38, N-(2-fluorophenyl)-2-(thiophen-3-yl)-1H-benzo[d]imidazole-5-sulfonamide]
156	5.32	O=S(=O)(Nc1ccccc1F)c1ccc2[nH]c(-c3ccncn3)nc2c1 [Example 39, N-(2-fluorophenyl)-2-(pyrimidin-4-yl)-1H-benzo[d]imidazole-5-sulfonamide]
222	6.12	O=S(=O)(Nc1ccccc1F)c1ccc2[nH]c(-c3nccs3)nc2c1 [Example 40, N-(2-fluorophenyl)-2-(thiazol-2-yl)-1H-benzo[d]imidazole-5-sulfonamide]
83	5.02	Cn1ccnc1-c1nc2cc(S(=O)(=O)Nc3ccccc3Cl)ccc2[nH]1 [Example 41, N-(2-chlorophenyl)-2-(1-methyl-1H-imidazol-2-yl)-1H-benzo[d]imidazole-5-sulfonamide]
50	6.65	O=S(=O)(Nc1ccc(F)cc1F)c1ccc2[nH]c(-c3ccsc3)nc2c1 [Example 42, N-(2,4-difluorophenyl)-2-(thiophen-3-yl)-1H-benzo[d]imidazole-5-sulfonamide]
69	5.55	O=S(=O)(Nc1ccccc1Cl)c1ccc2[nH]c(-c3ccno3)nc2c1 [Example 43, N-(2-chlorophenyl)-2-(isoxazol-5-yl)-1H-benzo[d]imidazole-5-sulfonamide]
36	4.87	Cc1nc[nH]c1-c1nc2cc(S(=O)(=O)Nc3ccccc3Cl)ccc2[nH]1 [Example 44, N-(2-chlorophenyl)-2-(4-methyl-1H-imidazol-5-yl)-1H-benzo[d]imidazole-5-sulfonamide]
104	5.13	CC1CCN(S(=O)(=O)c2ccc3[nH]c(-c4ccccn4)nc3c2)CC1 [Example 45, 5-((4-methylpiperidin-1-yl)sulfonyl)-2-(pyridin-2-yl)-1H-benzo[d]imidazole]
112	5.63	O=S(=O)(Nc1ccccc1Cl)c1ccc2[nH]c(C3CCCCO3)nc2c1 (centres unmarked) [Example 46, N-(2-chlorophenyl)-2-(tetrahydro-2H-pyran-2-yl)-1H-benzo[d]imidazole-5-sulfonamide]
147	6.15	O=S(=O)(Nc1ccc(F)cc1F)c1ccc2[nH]c(-c3nccs3)nc2c1 [Example 47, N-(2,4-difluorophenyl)-2-(thiazol-2-yl)-1H-benzo[d]imidazole-5-sulfonamide]
85	6.50	CCc1ccc(NS(=O)(=O)c2ccc3[nH]c(-c4ccsc4)nc3c2)cc1 [Example 48, N-(4-ethylphenyl)-2-(thiophen-3-yl)-1H-benzo[d]imidazole-5-sulfonamide]
